Test results as given in PubChem BioAssay AID256 (DTP/NCI, 2004).
“And” between values parts separate entries of the source, which are not always exact repeats. Equal values may be shown once. Toxic doses and inconclusive results are not listed.

System: CD2F1 mice, L1210 leukemia ip, survival T/C
Experiment: NCI In Vivo Anticancer Drug Screen. Data for tumor model L1210 Leukemia (intraperitoneal) in CD2F1 (CDF1) mice
Conditions: higher = longer survival
Method in brief: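 In this screen, transplantable tumors were grown in mice given either the compound or its vehicle. Results were expressed as the treated measurement relative to the control measurement.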

[1] = endpoint: mean survival time, dose: 50.0 mg/kg/injection, schedule: Q01DX009 (ip), vehicle: saline with Tween-80
[2] = endpoint: mean survival time, dose: 100.0 mg/kg/injection, schedule: Q04DX002 (ip), vehicle: saline with Tween-80
[3] = endpoint: mean survival time, dose: 200.0 mg/kg/injection, schedule: Q04DX002 (ip), vehicle: saline with Tween-80
[4] = endpoint: mean survival time, dose: 400.0 mg/kg/injection, schedule: Q04DX002 (ip), vehicle: saline with Tween-80
[5] = endpoint: mean survival time, dose: 100.0 mg/kg/injection, schedule: Q01DX009 (ip), vehicle: saline with Tween-80

Which results are given for `O=C(/C=C/c1ccccc1)NC(=S)NCc1ccccc1Cl`?
T/C [1]: 95 % of control and 96 % of control; T/C (endpoint: mean survival time, dose: 100.0 mg/kg/injection, schedule: Q01DX001 (ip), vehicle: saline with Tween-80): 94 % of control; T/C [2]: 95 % of control and 110 % of control; T/C (endpoint: mean survival time, dose: 200.0 mg/kg/injection, schedule: Q01DX001 (ip), vehicle: saline with Tween-80): 92 % of control; T/C [3]: 90 % of control and 95 % of control; T/C (endpoint: mean survival time, dose: 400.0 mg/kg/injection, schedule: Q01DX001 (ip), vehicle: saline with Tween-80): 95 % of control; T/C [4]: 98 % of control and 101 % of control

Which results are given for `CCN(CC)CCOc1ccc2c(c1)C(=O)c1cc(OCCN(CC)CC)ccc1-2`?
T/C (endpoint: mean survival time, dose: 12.5 mg/kg/injection, schedule: Q01DX009 (ip), vehicle: saline): 95 % of control; T/C (endpoint: mean survival time, dose: 25.0 mg/kg/injection, schedule: Q01DX009 (ip), vehicle: saline): 98 % of control; T/C (endpoint: mean survival time, dose: 50.0 mg/kg/injection, schedule: Q01DX009 (ip), vehicle: saline): 101 % of control

How did the T/C (endpoint: mean survival time, dose: 100.0 mg/kg/injection, schedule: Q01DX001 (ip), vehicle: saline) turn out when `CC(C)C(S(=O)(=O)c1ccccc1)S(=O)(=O)c1ccccc1` was run?
Its T/C is 105 % of control.

What about the T/C (endpoint: mean survival time, dose: 200.0 mg/kg/injection, schedule: Q01DX001 (ip), vehicle: saline) of the same molecule?
The T/C was 103 % of control.

What about the T/C (endpoint: mean survival time, dose: 400.0 mg/kg/injection, schedule: Q01DX001 (ip), vehicle: saline) of the same molecule?
The T/C was 96 % of control.

How did the T/C (endpoint: mean survival time, dose: 2.59 mg/kg/injection, schedule: Q01DX009 (ip), vehicle: Klucel (hydroxypropylcellulose) (HPC)) turn out when `CC1(C)N=C(N)N=C(N)N1c1ccc(CCCCc2ccc(S(=O)(=O)F)cc2Cl)c(Cl)c1` was run?
The T/C was 105 % of control.

What about the T/C (endpoint: mean survival time, dose: 4.32 mg/kg/injection, schedule: Q01DX009 (ip), vehicle: Klucel (hydroxypropylcellulose) (HPC)) of the same molecule?
Its T/C is 105 % of control.

And the T/C (endpoint: mean survival time, dose: 7.2 mg/kg/injection, schedule: Q01DX009 (ip), vehicle: Klucel (hydroxypropylcellulose) (HPC))?
The T/C was 116 % of control.

What about the T/C (endpoint: mean survival time, dose: 7.5 mg/kg/injection, schedule: Q01DX009 (ip), vehicle: Klucel (hydroxypropylcellulose) (HPC)) of the same molecule?
Its T/C is 100 % of control.

What about the T/C (endpoint: mean survival time, dose: 12.5 mg/kg/injection, schedule: Q01DX009 (ip), vehicle: saline with Tween-80) of the same molecule?
The T/C was 117 % of control.

What about the T/C (endpoint: mean survival time, dose: 15.0 mg/kg/injection, schedule: Q01DX009 (ip), vehicle: Klucel (hydroxypropylcellulose) (HPC)) of the same molecule?
Its T/C is 104 % of control.

And the T/C (endpoint: mean survival time, dose: 30.0 mg/kg/injection, schedule: Q01DX009 (ip), vehicle: Klucel (hydroxypropylcellulose) (HPC))?
Its T/C is 113 % of control.

What about the T/C (endpoint: mean survival time, dose: 50.0 mg/kg/injection, schedule: Q04DX003 (ip), vehicle: saline) of the same molecule?
The T/C was 103 % of control.

And the T/C (endpoint: mean survival time, dose: 60.0 mg/kg/injection, schedule: Q01DX009 (ip), vehicle: Klucel (hydroxypropylcellulose) (HPC))?
The T/C was 115 % of control.

And the T/C (endpoint: mean survival time, dose: 75.0 mg/kg/injection, schedule: Q04DX003 (ip), vehicle: saline)?
Its T/C is 104 % of control.

What about the T/C [5] of the same molecule?
Its T/C is 97 % of control.

What about the T/C (endpoint: mean survival time, dose: 110.0 mg/kg/injection, schedule: Q04DX003 (ip), vehicle: saline) of the same molecule?
Its T/C is 121 % of control and 105 % of control.

What about the T/C (endpoint: mean survival time, dose: 133.0 mg/kg/injection, schedule: Q04DX003 (ip), vehicle: saline with Tween-80) of the same molecule?
Its T/C is 158 % of control.

What about the T/C (endpoint: mean survival time, dose: 300.0 mg/kg/injection, schedule: Q04DX003 (ip), vehicle: saline with Tween-80) of the same molecule?
Its T/C is 107 % of control.

And the T/C (endpoint: median survival time, dose: 27.0 mg/kg/injection, schedule: Q01DX009 (ip), vehicle: saline with Tween-80)?
Its T/C is 156 % of control.

And the T/C (endpoint: median survival time, dose: 40.0 mg/kg/injection, schedule: Q01DX009 (ip), vehicle: saline with Tween-80)?
Its T/C is 156 % of control and 162 % of control.

What about the T/C (endpoint: median survival time, dose: 60.0 mg/kg/injection, schedule: Q01DX009 (ip), vehicle: saline with Tween-80) of the same molecule?
Its T/C is 158 % of control.

And the T/C (endpoint: median survival time, dose: 90.0 mg/kg/injection, schedule: Q01DX009 (ip), vehicle: saline with Tween-80)?
The T/C was 168 % of control.

And the T/C (endpoint: median survival time, dose: 200.0 mg/kg/injection, schedule: Q04DX003 (ip), vehicle: saline with Tween-80)?
Its T/C is 167 % of control.

And the T/C (endpoint: median survival time, dose: 225.0 mg/kg/injection, schedule: Q04DX003 (ip), vehicle: saline with Tween-80)?
Its T/C is 164 % of control.

With `OCC#CCOCC(O)CCl` (stereo not drawn) as the molecule, how does the T/C (endpoint: mean survival time, dose: 25.0 mg/kg/injection, schedule: Q01DX009 (ip), vehicle: water) read?
The T/C was 107 % of control.

What about the T/C (endpoint: mean survival time, dose: 50.0 mg/kg/injection, schedule: Q01DX009 (ip), vehicle: water) of the same molecule?
The T/C was 98 % of control.

What about the T/C (endpoint: mean survival time, dose: 100.0 mg/kg/injection, schedule: Q01DX009 (ip), vehicle: water) of the same molecule?
The T/C was 104 % of control.

And the T/C (endpoint: mean survival time, dose: 200.0 mg/kg/injection, schedule: Q01DX009 (ip), vehicle: water)?
Its T/C is 97 % of control.

How did the T/C [1] turn out when `COc1cc(Cl)ccc1NC(=O)Nc1cc(C)on1` was run?
The T/C was 100 % of control.

And the T/C [5]?
Its T/C is 95 % of control.

And the T/C (endpoint: mean survival time, dose: 200.0 mg/kg/injection, schedule: Q01DX009 (ip), vehicle: saline with Tween-80)?
The T/C was 95 % of control.

With `CC(C)OC(=O)N(C(=O)OC(C)C)c1ccc(F)cc1` as the molecule, how does the T/C [2] read?
Its T/C is 91 % of control.

And the T/C [3]?
The T/C was 97 % of control.

What about the T/C [4] of the same molecule?
The T/C was 94 % of control.

What does the source list for `COc1ccc(NC(=O)Nc2ccccc2Cl)c(OC)c1`?
T/C (endpoint: mean survival time, dose: 25.0 mg/kg/injection, schedule: Q04DX002 (ip), vehicle: saline with Tween-80): 94 % of control; T/C (endpoint: mean survival time, dose: 50.0 mg/kg/injection, schedule: Q04DX002 (ip), vehicle: saline with Tween-80): 87 % of control; T/C [2]: 102 % of control

For `O=C1C(=O)c2ccccc2C(O)=C1CCCc1ccc(OCc2ccccc2)cc1`, which T/C (endpoint: mean survival time, dose: 100.0 mg/kg/injection, schedule: Q04DX003 (ip), vehicle: saline) is on record?
The T/C was 86 % of control.

And the T/C (endpoint: mean survival time, dose: 200.0 mg/kg/injection, schedule: Q04DX003 (ip), vehicle: saline)?
The T/C was 88 % of control.

How did the T/C (endpoint: mean survival time, dose: 400.0 mg/kg/injection, schedule: Q04DX003 (ip), vehicle: saline with Tween-80) turn out when `CC(CCC(C)(C)O)C1CCC2C3C(O)CC4CCCCC4(C)C3CC(O)C12C` (stereo not drawn) was run?
Its T/C is 88 % of control.

Which T/C (endpoint: median survival time, dose: 50.0 mg/kg/injection, schedule: Q04DX002 (ip), vehicle: saline with Tween-80) does the source give for `CC1c2ccc3ccccc3c2C(=O)c2cccc(Cl)c21` (stereo not drawn) here?
Its T/C is 100 % of control.

What about the T/C (endpoint: median survival time, dose: 100.0 mg/kg/injection, schedule: Q04DX002 (ip), vehicle: saline with Tween-80) of the same molecule?
Its T/C is 100 % of control.

And the T/C (endpoint: median survival time, dose: 200.0 mg/kg/injection, schedule: Q04DX002 (ip), vehicle: saline with Tween-80)?
Its T/C is 111 % of control.

And the T/C (endpoint: median survival time, dose: 400.0 mg/kg/injection, schedule: Q04DX002 (ip), vehicle: saline with Tween-80)?
The T/C was 88 % of control.
